One assay has as its target JNK3 (Homo sapiens (Human), UniProt P53779). The experiment in a line: JNK3 TR-FRET kinase assay (Example 14). Type of assay: biochemical. As to conditions: procedures of Example 14 (TR-FRET). The essentials: (§1)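 Two TR-FRET formats were used for each JNK isoform. In the direct one, preactivated aJNK phosphorylated EPIW-1 at about 1 mM final ATP (RT, 15 min). Both were EDTA-quenched and read by HTRF.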

Another assay deals with JNK1 (Homo sapiens (Human), UniProt P45983). Kind of assay: JNK1 TR-FRET kinase assay (Example 14). The assay is classed as biochemical. As to conditions: procedures of Example 14 (TR-FRET). The method in brief: as §1
(In general: In TR-FRET formats the signal depends on donor and acceptor labels being close together.)

The target of the next assay is JNK2 (Homo sapiens (Human), UniProt P45984). The experiment in a line: JNK2 TR-FRET kinase assay (Example 14). Type of assay: biochemical. As to conditions: procedures of Example 14 (TR-FRET). The essentials:
as §1

For assay [1], the system named is phosphorylated c-jun (p-cjun). The experiment in a line: Inhibition of kainic acid induced phospho-cJun upregulation in mice hippocampi. The assay is classed as in vivo. As for the experimental part: Female, FVB/N mice (Taconic) were treated by oral gavage (PO) with one 300 mg/kg dose of N-(4-chloro-3-(1H-1,2,4-triazol-5-yl)thiophen-2-yl)-2-(isoquinolin-5-yl)acetamide or vehicle (0.9% saline) at a 5 ml/kg dose volume. Control animals were dosed with vehicle. Thirty minutes later animals were treated interperitoneally with 25 mg/kg of kainic acid or saline at a 10 ml/kg dose volume. Kainic acid was formulated in 0.9% saline. Four hours after kainic acid administration animals were euthanized by carbon dioxide and were transcardially perfused with 0.9% saline. Brains were removed, and separated into left and right hemispheres. The hippocampus was dissected from the right hemisphere, frozen on dry ice and kept at −80° C. until used for quantitation of p-cjun levels.
Preweighed hippocampus tissues were homogenized in cold cell extraction buffer (CEB) containing 1% Triton X-100, 0.1% SDS, 0.5% deoxycholate, 20 mM Na4P2O7, 2 mM Na3VO4, 0.1% SDS and protease inhibitors (PI, 2 mg/mL aprotinin and 1 mg/mL leupeptin) at a ratio of 9:1 CEB to wet tissue weight. Homogenized samples were analyzed using PathScan Phospho-c-Jun (Ser63) Sandwich ELISA Kit II from Cell Signaling Technology. Samples were diluted 1:10 in sample diluent provided in the kit. An 8-point standard curve was prepared by diluting a 10 ng/mL phos-c-Jun standard 1:3 in 10% CEB/PI in sample diluent. Samples and standards were added at 100 μL per well to prewetted ELISA plates which contain a phos-c-jun (ser63)-specific rabbit monoclonal capture antibody and incubated overnight at 4° C. The plate was then allowed to warm to room temperature and washed three times using TBS+0.05% Tween 20 (TTBS). To each well were added 100 μL of a mouse monoclonal c-Jun detection antibody and the plate was incubated at 37° C. for 1 hour. The plate was washed three times in TTBS, then 100 μL per well of an anti-mouse IgG HRP-linked antibody was added. […] The colorimetric reaction was read using a Molecular Devices Spectramax plate reader and sample data was calculated from the standard curve fit to a 4-parameter function.

Usually pIC50 stands for the IC50 on a negative log10 scale, so that one unit is a factor of ten. The low end stands for a large IC50, the high end for a small IC50.

pIC50: −log10 of the molar value.

JNK3, sequence (P53779 whole entry, species assumed, canonical isoform): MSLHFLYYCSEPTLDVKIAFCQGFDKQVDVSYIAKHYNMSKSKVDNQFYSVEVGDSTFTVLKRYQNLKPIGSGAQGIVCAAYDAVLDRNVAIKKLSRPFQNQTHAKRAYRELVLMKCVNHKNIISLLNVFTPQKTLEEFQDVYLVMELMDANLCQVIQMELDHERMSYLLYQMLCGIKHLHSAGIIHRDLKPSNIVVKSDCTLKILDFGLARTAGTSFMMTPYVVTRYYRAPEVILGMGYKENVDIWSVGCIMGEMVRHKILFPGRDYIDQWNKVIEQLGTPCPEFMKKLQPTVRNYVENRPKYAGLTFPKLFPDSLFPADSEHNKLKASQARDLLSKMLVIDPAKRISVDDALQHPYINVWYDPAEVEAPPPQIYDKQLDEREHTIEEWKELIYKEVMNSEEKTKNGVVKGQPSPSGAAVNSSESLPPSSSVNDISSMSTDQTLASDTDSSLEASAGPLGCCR
JNK2, sequence (P45984 whole entry, species assumed): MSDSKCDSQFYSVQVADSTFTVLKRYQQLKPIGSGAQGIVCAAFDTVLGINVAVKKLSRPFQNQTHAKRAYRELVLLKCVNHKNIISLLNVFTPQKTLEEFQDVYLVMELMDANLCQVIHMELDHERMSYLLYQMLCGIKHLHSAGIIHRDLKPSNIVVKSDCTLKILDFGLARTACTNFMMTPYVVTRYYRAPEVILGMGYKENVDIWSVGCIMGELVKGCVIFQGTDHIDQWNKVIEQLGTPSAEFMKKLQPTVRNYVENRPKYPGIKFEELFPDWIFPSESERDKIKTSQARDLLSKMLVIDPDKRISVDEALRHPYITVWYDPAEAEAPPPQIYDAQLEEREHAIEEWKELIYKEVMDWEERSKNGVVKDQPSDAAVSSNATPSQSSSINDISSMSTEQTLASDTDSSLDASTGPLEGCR
JNK1, sequence (P45983 other isoform, or with tags, fused parts or gaps isoform P45983-2, species assumed): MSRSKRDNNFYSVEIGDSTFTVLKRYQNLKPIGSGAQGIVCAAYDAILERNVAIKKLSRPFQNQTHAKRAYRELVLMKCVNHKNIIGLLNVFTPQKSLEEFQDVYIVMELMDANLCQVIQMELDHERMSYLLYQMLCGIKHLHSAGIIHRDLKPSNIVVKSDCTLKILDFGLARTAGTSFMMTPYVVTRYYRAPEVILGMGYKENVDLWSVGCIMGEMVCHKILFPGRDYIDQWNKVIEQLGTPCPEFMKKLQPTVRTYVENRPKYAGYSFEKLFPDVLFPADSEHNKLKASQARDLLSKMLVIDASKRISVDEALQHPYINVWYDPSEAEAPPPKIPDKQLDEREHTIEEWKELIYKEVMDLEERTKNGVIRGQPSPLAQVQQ

With `O=C(Cc1cccc2cnccc12)Nc1scc(Cl)c1-c1ncn[nH]1` [N-(4-chloro-3-(1H-1,2,4-triazol-5-yl)thiophen-2-yl)-2-(isoquinolin-5-yl)acetamide], the pIC50 against JNK3, at JNK1 and against JNK2 was more than 7.00 each time. Moreover, the “reduction of p-cjun in the hippocampus” value in assay [1] (FVB mice, 300 mg/kg, 4 hours after treatment with kainic acid, statistically significant (unpaired t-test)) is reported as 51%. For the same molecule, the “p-cJun Mean” value in assay [1] (female FVB/N mice, 300 mg/kg PO 30 min before 25 mg/kg kainic acid i.p., hippocampus 4 h after kainic acid) is 0.927 ng/mL. In addition, the “p-cJun % of Vehicle” value in assay [1] (female FVB/N mice, 300 mg/kg PO, hippocampus 4 h after kainic acid, relative to kainic acid + vehicle group) stood at 49.2%.

In the case of `Cc1csc(NC(=O)Cc2cccc3nccnc23)c1-c1ncn[nH]1` [N-(4-methyl-3-(1H-1,2,4-triazol-5-yl)thiophen-2-yl)-2-(quinoxalin-5-yl)acetamide], the pIC50 on JNK3, against JNK1 and against JNK2 was 5.00 to 7.00 throughout.

For `Cc1noc(-c2c(C)csc2NC(=O)Cc2cccc3ccccc23)n1` [N-(4-methyl-3-(3-methyl-1,2,4-oxadiazol-5-yl)thiophen-2-yl)-2-(naphthalen-1-yl)acetamide], the pIC50 on JNK3, against JNK1 and on JNK2 was 5.00 to 7.00 throughout.

For the molecule `Cc1n[nH]c(-c2c(C)csc2NC(=O)CN2C(=O)CCc3ccccc32)n1` [N-(4-methyl-3-(3-methyl-1H-1,2,4-triazol-5-yl)thiophen-2-yl)-2-(2-oxo-3,4-dihydroquinolin-1(2H)-yl)acetamide], the negative logarithm of the IC50 (pIC50) against JNK3, at JNK1 and at JNK2 was more than 7.00 throughout.

Regarding `Cc1n[nH]c(-c2c(C)csc2NC(=O)Cc2ccc(OCCCN3CCCCC3)cc2)n1` [N-(4-methyl-3-(3-methyl-1H-1,2,4-triazol-5-yl)thiophen-2-yl)-2-(4-(3-(piperidin-1-yl)propoxy)phenyl)acetamide], the pIC50 on JNK3, against JNK1 and against JNK2 was 5.00 to 7.00 each time.

Turning to `Cc1n[nH]c(-c2c(C)csc2NC(=O)Cc2cccc3ncccc23)n1` [N-(4-methyl-3-(3-methyl-1H-1,2,4-triazol-5-yl)thiophen-2-yl)-2-(quinolin-5-yl)acetamide], the pIC50 is more than 7.00 on JNK3, more than 7.00 against JNK1 and 5.00 to 7.00 on JNK2.

For `Cc1n[nH]c(-c2c(C)csc2NC(=O)Cc2cccc3nccnc23)n1` [N-(4-methyl-3-(3-methyl-1H-1,2,4-triazol-5-yl)thiophen-2-yl)-2-(quinoxalin-5-yl)acetamide], the pIC50 at JNK3, on JNK1 and on JNK2 was 5.00 to 7.00 each time.

Consider `O=C(Cn1c(=O)ccc2cc(C(F)(F)F)ccc21)Nc1sc(Cl)cc1-c1ncn[nH]1` [N-(5-chloro-3-(1H-1,2,4-triazol-5-yl)thiophen-2-yl)-2-(2-oxo-6-(trifluoromethyl)quinolin-1(2H)-yl)acetamide], for which the negative logarithm of the IC50 (pIC50) against JNK3 was 5.00 to 7.00; against JNK1, more than 7.00; against JNK2, 5.00 to 7.00.

For the origin of these results see patent publication US9796706B2, “Inhibitors of Jun N-terminal kinase” (IMAGO PHARMACEUTICALS, INC., priority 2009, dated 2017).
